For nine molecules, TGI results are on record in PubChem BioAssay (NCI).

Molecules are shown by their SMILES.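 How tested: cells in 96-well plates exposed to compound for 48 hours at five concentrations. TGI denotes the concentration required for complete inhibition of growth.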

Among the test systems are OVCAR-8 ovarian; NCI-H522 lung; SK-MEL-2 melanoma; SR leukemia; K-562 leukemia; MDA-MB-435; SNB-75 CNS; MOLT-4 leukemia; MDA-MB-231 breast; U251 CNS; OVCAR-3 ovarian; HL-60(TB) leukemia; NCI-H23 lung; M14 melanoma; A498 renal; RPMI-8226 leukemia; UACC-62 melanoma; RXF 393 renal.
Common to all, as to assay: NCI anticancer screen, dose series, 48 h

With `O=[N+]([O-])c1ccc(Cl)cc1-n1nc(-c2ccccc2)cc1-c1ccccc1`, the TGI in the experiment with OVCAR-8 ovarian, with NCI-H522 lung, in the experiment with SK-MEL-2 melanoma, in the experiment on SR leukemia, in the experiment on K-562 leukemia and in the experiment on MDA-MB-435 was above 100 µM throughout. The TGI in the experiment on SNB-75 CNS, in the experiment with MOLT-4 leukemia, with MDA-MB-231 breast, in the experiment with U251 CNS, in the experiment with OVCAR-3 ovarian and with HL-60(TB) leukemia was above 100 µM in each case. In addition, the TGI in the experiment with NCI-H23 lung, in the experiment on M14 melanoma, in the experiment with A498 renal, in the experiment with RPMI-8226 leukemia and in the experiment on UACC-62 melanoma was above 100 µM throughout.
With `CCOC(=O)C1(Cc2ccccc2)Cc2cc3c(cc2C1)CCC3`, the TGI with OVCAR-8 ovarian was above 100 µM; with NCI-H522 lung, 96.2 µM; in the experiment on SK-MEL-2 melanoma, 34.3 µM; with SR leukemia it was 65.1 µM; in the experiment with K-562 leukemia, above 100 µM; in the experiment on MDA-MB-435 it was above 100 µM. Also, the TGI in the experiment with MOLT-4 leukemia is 58.6 µM; in the experiment on MDA-MB-231 breast, above 100 µM; in the experiment on U251 CNS, above 100 µM; in the experiment on OVCAR-3 ovarian it was above 100 µM; with HL-60(TB) leukemia, 76.9 µM; with NCI-H23 lung it was above 100 µM. Further, the TGI with M14 melanoma was above 100 µM; with A498 renal, above 100 µM; in the experiment on RPMI-8226 leukemia it was 51.7 µM; with UACC-62 melanoma, above 100 µM.
Consider `Cc1ccc(/C=C2\N=C(N3CCCCC3)NC2=O)cc1`, for which the TGI in the experiment with OVCAR-8 ovarian, in the experiment on NCI-H522 lung, with SK-MEL-2 melanoma, in the experiment on SR leukemia, in the experiment with MDA-MB-435 and in the experiment on MOLT-4 leukemia was above 100 µM in each case. For the same molecule, the TGI with MDA-MB-231 breast, with U251 CNS, with RXF 393 renal, with OVCAR-3 ovarian, in the experiment on HL-60(TB) leukemia and in the experiment with NCI-H23 lung was above 100 µM each time. In addition, the TGI with M14 melanoma, in the experiment on RPMI-8226 leukemia and in the experiment on UACC-62 melanoma was above 100 µM throughout.
On to `CSC(SC)=C1C(=O)NN=C1C`, for which the TGI in the experiment on NCI-H522 lung, in the experiment on SK-MEL-2 melanoma, in the experiment on SR leukemia, in the experiment with K-562 leukemia, in the experiment with MDA-MB-435 and in the experiment on MOLT-4 leukemia was above 100 µM in each case. The TGI in the experiment on MDA-MB-231 breast, in the experiment with U251 CNS, in the experiment with RXF 393 renal, in the experiment with OVCAR-3 ovarian, with HL-60(TB) leukemia and in the experiment with NCI-H23 lung was above 100 µM each time. The TGI in the experiment on M14 melanoma, in the experiment with RPMI-8226 leukemia and in the experiment on UACC-62 melanoma was above 100 µM throughout.
Regarding `CCOc1cc(/C=N\N(C)C)cc(/C=N\N(C)C)c1O`, the TGI was 56.2 µM with OVCAR-8 ovarian; 77 µM in the experiment with SK-MEL-2 melanoma; above 100 µM with SR leukemia; above 100 µM with K-562 leukemia; above 100 µM with MDA-MB-435; 77.7 µM with SNB-75 CNS. For the same molecule, the TGI in the experiment with MOLT-4 leukemia is above 100 µM; with MDA-MB-231 breast it was above 100 µM; in the experiment on U251 CNS, 89.9 µM; in the experiment on OVCAR-3 ovarian, above 100 µM; in the experiment with HL-60(TB) leukemia, above 100 µM; in the experiment with NCI-H23 lung, above 100 µM. In addition, the TGI in the experiment with M14 melanoma, in the experiment with A498 renal, in the experiment with RPMI-8226 leukemia and in the experiment on UACC-62 melanoma was above 100 µM each time.
Regarding `Cc1cc2nc(N3C(=O)/C(=C/c4cccc([N+](=O)[O-])c4)N=C3c3ccccc3)sc2cc1C`, the TGI in the experiment on OVCAR-8 ovarian is 80.2 µM; in the experiment on SK-MEL-2 melanoma it was 60 µM; in the experiment on SR leukemia, 35.1 µM; in the experiment on K-562 leukemia it was above 100 µM; in the experiment with MDA-MB-435 it was 36.5 µM; with SNB-75 CNS it was 33.2 µM. For the same molecule, the TGI in the experiment on MOLT-4 leukemia is 32.4 µM; with MDA-MB-231 breast, above 100 µM; in the experiment on U251 CNS, 58 µM; in the experiment with RXF 393 renal it was 58 µM; in the experiment on OVCAR-3 ovarian it was above 100 µM; in the experiment with HL-60(TB) leukemia, 54.5 µM. The TGI in the experiment on M14 melanoma is above 100 µM; in the experiment on RPMI-8226 leukemia it was 48.1 µM; in the experiment with UACC-62 melanoma, above 100 µM.
For `CC1=C2C(=O)O[C@@H](c3ccoc3)[C@]2(C)CCC1=O`, the TGI in the experiment with OVCAR-8 ovarian, in the experiment with SK-MEL-2 melanoma, in the experiment on SR leukemia, with K-562 leukemia, in the experiment with MDA-MB-435 and with SNB-75 CNS was above 100 µM throughout. The TGI in the experiment with MOLT-4 leukemia, in the experiment with MDA-MB-231 breast, in the experiment on U251 CNS, in the experiment with OVCAR-3 ovarian, with NCI-H23 lung and in the experiment with M14 melanoma was above 100 µM each time. Also, the TGI in the experiment with A498 renal, with RPMI-8226 leukemia and with UACC-62 melanoma was above 100 µM each time.
With `COCCOCN(C(=O)C1=CCC2(CC1)OCCO2)c1ccccc1I`, the TGI in the experiment with OVCAR-8 ovarian, in the experiment on SK-MEL-2 melanoma, in the experiment on SR leukemia, in the experiment on MDA-MB-435, in the experiment with SNB-75 CNS and with MOLT-4 leukemia was above 50 µM each time. For the same molecule, the TGI with MDA-MB-231 breast, with U251 CNS, in the experiment on OVCAR-3 ovarian, with NCI-H23 lung, in the experiment with M14 melanoma and in the experiment on A498 renal was above 50 µM each time. The TGI in the experiment with RPMI-8226 leukemia and with UACC-62 melanoma was above 50 µM throughout.
`CCOC(=O)N1CCN(Cc2cc(=O)n3cc(C)ccc3n2)CC1`: the TGI in the experiment on OVCAR-8 ovarian, with NCI-H522 lung, in the experiment on SK-MEL-2 melanoma, in the experiment on SR leukemia, with K-562 leukemia and in the experiment with MDA-MB-435 was above 100 µM each time. Besides, the TGI with SNB-75 CNS, in the experiment with MOLT-4 leukemia, in the experiment with MDA-MB-231 breast, in the experiment on U251 CNS, in the experiment on OVCAR-3 ovarian and in the experiment on HL-60(TB) leukemia was above 100 µM each time. Moreover, the TGI in the experiment on NCI-H23 lung, with M14 melanoma, with RPMI-8226 leukemia and in the experiment with UACC-62 melanoma was above 100 µM throughout.
